Experiment [1] deals with T1, human 5HT1A-serotonergic receptor (Homo sapiens, UniProt P08908).
T1 construct: expressed in transfected cells; host or cells: HeLa (human cell line), stably transfected; cell membranes used
T1 sequence (P08908 1-422): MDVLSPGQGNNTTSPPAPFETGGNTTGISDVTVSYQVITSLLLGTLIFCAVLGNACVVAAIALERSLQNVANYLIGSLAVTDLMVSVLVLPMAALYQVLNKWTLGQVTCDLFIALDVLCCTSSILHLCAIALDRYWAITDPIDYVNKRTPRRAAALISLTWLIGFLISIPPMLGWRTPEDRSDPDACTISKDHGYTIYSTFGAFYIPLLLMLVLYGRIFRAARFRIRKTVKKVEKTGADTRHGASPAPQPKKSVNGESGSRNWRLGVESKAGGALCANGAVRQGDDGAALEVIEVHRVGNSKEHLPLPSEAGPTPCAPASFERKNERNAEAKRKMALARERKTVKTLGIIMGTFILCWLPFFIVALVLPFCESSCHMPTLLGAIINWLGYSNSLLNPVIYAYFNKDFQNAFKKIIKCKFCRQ
The experiment can be described thus: Radioligand binding to recombinant 5-HT1A receptors. The settings on record: [3H]8-OH-DPAT 1 nM, membranes of HeLa cells with human 5-HT1A receptor; Ki from IC50 by Cheng & Prusoff; read-out: Binding affinity for 5HT1A receptors, Ki. The procedure, abridged: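 Membranes from HeLa cells stably expressing human 5-HT1A incubated 30 min at 30 °C with 1 nM [3H]8-OH-DPAT and compound in 50 mM Tris-HCl pH 7.4, 2.5 mM MgCl2, […] pargyline. Nonspecific binding defined with 10 μM 5-HT; filtration readout, IC50 converted to Ki via Cheng–Prusoff.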

The target in experiment [2] is T2, 5-HT1A receptors (Rattus norvegicus, UniProt P19327).
T2 construct: from tissue; host or cells: whole animal: male Sprague-Dawley rats (post-synaptic 5-HT1A receptors)
T2 sequence (P19327 1-422): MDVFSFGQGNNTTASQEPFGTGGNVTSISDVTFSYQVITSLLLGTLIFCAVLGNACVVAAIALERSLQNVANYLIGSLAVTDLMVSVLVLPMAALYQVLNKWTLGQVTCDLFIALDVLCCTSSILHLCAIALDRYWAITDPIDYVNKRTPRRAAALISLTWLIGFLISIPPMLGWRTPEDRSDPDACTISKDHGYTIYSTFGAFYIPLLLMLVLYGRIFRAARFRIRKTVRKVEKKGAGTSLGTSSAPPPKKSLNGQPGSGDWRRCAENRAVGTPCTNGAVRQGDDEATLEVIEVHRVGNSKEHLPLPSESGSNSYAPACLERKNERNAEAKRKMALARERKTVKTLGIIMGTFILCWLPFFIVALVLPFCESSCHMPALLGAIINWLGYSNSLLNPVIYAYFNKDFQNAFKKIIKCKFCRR
The experiment can be described thus: Inhibition of stereotypy (rhythmic forepaw treading) induced by 8-OH-DPAT in rats (post-synaptic antagonism). The class given is in vivo. The note with it: 1 mg/kg p.o.; for inhibition at 1 mg/kg: rat. As for the experimental part: The inhibitory effect of 5-HT1A-receptor antagonists on stereotyped forepaw treading induced in rats by subcutaneous injection of 8-OH-DPAT was evaluated by the method of Tricklebank (Tricklebanket al., Eur. J. Pharmacol., 117: 15, 1985) with minor modifications as described below.
Male Sprague-Dawley rats [Crl: CD° (SD) BR] weighing 150-175 g from Charles River Italia were used. The animals were housed with free access to food and water and maintained on a forced 12-hour-light/12-hour-dark cycle at 22-24° C. of temperature. On the day of the experiment, the rats were placed singly in clear plastic containers, 10-15 minutes before administration of the vehicle or compounds to be tested. For evaluation of antagonistic activity after oral administration, the compounds were administered 0.5, 1 and 4 hours before induction of stereotypy by 8-OH-DPAT (1 mg/kg subcutaneously). Observation sessions lasted 30 seconds and began 3 minutes after 8-OH-DPAT treatment and were repeated every 3 minutes over a period of 15 minutes.
The appearance of the symptom induced by postsynaptic stimulation of 5-HT1A receptors was noted, and the intensity was scored using an intensity scale in which: 0=absent, 1=equivocal, 2=present and 3=intense. Behavioural scores for treated rats were accumulated throughout the observation time (5 observation periods) and expressed as mean values of 4 rats/dose. Change in mean values of treated animals in comparison with control (vehicle) group, expressed as per-cent inhibition, was used in order to quantify the antagonistic activity.

This is an account of results in patent publication US20030162777A1, “Novel N-acylated heterocycles” (Recordati S.A., priority 2001, published 2003).

With `O=C(C1CCCCC1)N1c2ccccc2CCC1CN1CCN(c2cccc3[nH]ccc23)CC1` (racemic) [Example 1, (±)1-(1-cyclohexanecarbonyl-1,2,3,4-tetrahydroquinoline-2-ylmethyl)-4-(4-indolyl)piperazine], the Ki (usually a dissociation constant, usually derived from enzyme kinetics or from competition with a known ligand) in experiment [1] was 3.3 nM. The “post-synaptic 5-HT1A-receptor antagonist activity (in words)” value in experiment [2] (rats) was “significant and long-lasting post-synaptic 5-HT1A-receptor antagonist activity”. Moreover, the inhibition (as a rule, how much of the control response was suppressed) at 1 mg/kg in experiment [2] (0.5 h before 8-OH-DPAT (1 mg/kg s.c.)) was 91%; in experiment [2] (1 h before 8-OH-DPAT (1 mg/kg s.c.)), 91%; in experiment [2] (4 h before 8-OH-DPAT (1 mg/kg s.c.)), 96%.
